Measured values published in US20220177834A1, “STABLE SYSTEM FOR THE IN VITRO CULTURE OF CEREBELLAR GRANULE CELL PRECURSORS (GCP), STABLE METHOD FOR THE IN VITRO CULTURE OF SAID CELLS AND USE OF SAID SYSTEM OR METHOD FOR IN VITRO CULTURE” (UNIVERSITA DEGLI STUDI Dl ROMA "LA SAPIENZA", priority 2019, published 2022).
Entries after “also recorded” stand apart in the source; their conditions may differ.

Assays:
Shh pathway = Shh pathway expression (Gli1, N-Myc; Western Blot, real time Q-PCR) in GCP neurosphere cultures; format: cell-based, mouse; details: Western Blot, neurospheres under different culture conditions; SAG 200 nM, EGF 1 μM
Method: (§1) After surgical resection from a mouse on the seventh day of postnatal life (P7) the cerebellum was mechanically shredded in a buffer containing HBSS, glucose and antibiotics, and DNase (at concentrations as defined above) and the individual cells thus obtained were counted and plated at a dilution of 16000 cells/cm^2 on a medium composed of DMEM-F12, glucose, Vitamin A-free B27, insulin, NALC, heparin, antibiotics (at concentrations as defined above) and SAG (200 nM) and EGF ([…]). On this medium the cells can be enriched and maintained for an unlimited time, after periodical dissociation of the spheres with Accutase® (2-3 times per week) and propagation by dilution (to prevent excessive growth and consequent death from nutrient deficiency and hypoxia). The reaction conditions were as described above.

GCP cells = assay: Clonogenicity / long-term propagation of GCP neurosphere cultures; format: cell-based, mouse
Method: as §1

## CNC1CCC(N(Cc2cccc(-c3ccncc3)c2)C(=O)c2sc3ccccc3c2Cl)CC1 (stereo not drawn) [SAG]
Shh pathway
  expression of molecular biomarkers of the Shh pathway, Gli1 and N-Myc: active; also recorded: maintains a high expression of the Shh pathway
GCP cells; factor alone
  long-term survival of the culture: does not ensure long-term survival of the culture
GCP cells; several weeks after being grown
  clonogenic power (average spheres) over time: undergoes progressive decline
